In PMC9154192 (PLoS Biology, 2022):

Columns and labels:
M. avium = test: microbe, parasite or virus in culture; type: cell-based; settings: Mycobacterium avium
M. neoaurum = test: microbe, parasite or virus in culture; type: cell-based, Mycobacterium neoaurum; settings: Mycolicibacterium neoaurum
M. conceptionense = test: microbe, parasite or virus in culture; type: cell-based, Mycobacterium conceptionense; settings: Mycolicibacterium senegalense
M. massiliense = test: microbe, parasite or virus in culture; type: cell-based, Mycobacterium massiliense; settings: Mycobacteroides abscessus
M. chitae = test: microbe, parasite or virus in culture; type: cell-based, Mycobacterium chitae; settings: Mycolicibacterium chitae
M. phocaicum = test: microbe, parasite or virus in culture; type: cell-based, Mycobacterium phocaicum; settings: Mycolicibacterium phocaicum
Klebsiella pneumoniae = test: Broth dilution MIC (CLSI); type: cell-based; settings: read-out: MIC
Text: (§1) Bacteria (Acinetobacter baumannii NCCP 14782, Citrobacter freundii NCCP 14766, Enterobacter aerogenes NCCP 14761, Escherichia coli NCCP 14762, Escherichia coli O157 NCCP 14541, Klebsiella pneumoniae NCCP 14764, Proteus mirabilis NCCP 14763, Proteus vulgaris NCCP 14765, Pseudomonas aeruginosa NCCP 14781, Salmonella Enteritidis NCCP 14771, Salmonella Paratyphi A NCCP 14759, Salmonella Typhimurium NCCP 16207, Serratia marcescens NCCP 14770, Shigella boydii NCCP 14745, Shigella dysenteriae NCCP 14746, Shigella flexneri NCCP 14744, Shigella sonnei NCCP 14773, Bacillus subtilis NCCP 11101, Corynebacterium diphtheriae NCCP 10353, Staphylococcus aureus MSSA NCCP 14780, Staphylococcus aureus MRSA NCCP 14769, Staphylococcus epidermidis NCCP 14768, Streptococcus pneumoniae NCCP 14774) and fungi (Aspergillus fumigatus NCCP 22454, Candida albicans NCCP 32557, Cryptococcus neoformans NCCP 32559, Microsporum canis NCCP 22454, Rhizopus oryzae NCCP 22458, Saccharomyces cerevisiae NCCP 32558, Trichophyton rubrum NCCP 22456) strains were obtained from the National Culture Collection for Pathogens (NCCP) (Chungbuk, Korea). The MIC of each agent was determined following the Clinical and Laboratory Standards Institute (CLSI).[40]

Escherichia coli = test: Broth dilution MIC (CLSI); type: cell-based; settings: read-out: MIC
Text: as §1

Saccharomyces cerevisiae = test: Broth dilution MIC (CLSI); type: cell-based; settings: read-out: MIC
Text: as §1

Salmonella Typhimurium = test: Broth dilution MIC (CLSI); type: cell-based; settings: Salmonella enterica; Salmonella Typhimurium; read-out: MIC
Text: as §1

Shigella dysenteriae = test: Broth dilution MIC (CLSI); type: cell-based; settings: read-out: MIC
Text: as §1

Salmonella Enteritidis = test: Broth dilution MIC (CLSI); type: cell-based; settings: Salmonella enterica; Salmonella Enteritidis; read-out: MIC
Text: as §1

Proteus vulgaris = test: Broth dilution MIC (CLSI); type: cell-based; settings: read-out: MIC
Text: as §1

[1] = test system: Corynebacterium diphtheriae; test: Broth dilution MIC (CLSI); type: cell-based; settings: read-out: MIC
Text: as §1

Enterobacter aerogenes = test: Broth dilution MIC (CLSI); type: cell-based; settings: Klebsiella aerogenes; Enterobacter aerogenes; read-out: MIC
Text: as §1

Salmonella Paratyphi A = test: Broth dilution MIC (CLSI); type: cell-based; settings: Salmonella enterica; Salmonella Paratyphi A; read-out: MIC
Text: as §1

Shigella boydii = test: Broth dilution MIC (CLSI); type: cell-based; settings: read-out: MIC
Text: as §1

Streptococcus pneumoniae = test: Broth dilution MIC (CLSI); type: cell-based; settings: read-out: MIC
Text: as §1

Shigella flexneri = test: Broth dilution MIC (CLSI); type: cell-based; settings: read-out: MIC
Text: as §1

Trichophyton rubrum = test: Broth dilution MIC (CLSI); type: cell-based; settings: read-out: MIC
Text: as §1

Rhizopus oryzae = test: Broth dilution MIC (CLSI); type: cell-based; settings: Rhizopus arrhizus; Rhizopus oryzae; read-out: MIC
Text: as §1

Candida albicans = test: Broth dilution MIC (CLSI); type: cell-based; settings: read-out: MIC
Text: as §1

Serratia marcescens = test: Broth dilution MIC (CLSI); type: cell-based; settings: read-out: MIC
Text: as §1

Citrobacter freundii = test: Broth dilution MIC (CLSI); type: cell-based; settings: read-out: MIC
Text: as §1

Proteus mirabilis = test: Broth dilution MIC (CLSI); type: cell-based; settings: read-out: MIC
Text: as §1

Bacillus subtilis = test: Broth dilution MIC (CLSI); type: cell-based; settings: read-out: MIC
Text: as §1

Aspergillus fumigatus = test: Broth dilution MIC (CLSI); type: cell-based; settings: read-out: MIC
Text: as §1

[2] = test system: Staphylococcus aureus, MSSA; test: Broth dilution MIC (CLSI); type: cell-based; settings: read-out: MIC
Text: as §1

Escherichia coli O157 = test: Broth dilution MIC (CLSI); type: cell-based; settings: read-out: MIC
Text: as §1

Shigella sonnei = test: Broth dilution MIC (CLSI); type: cell-based; settings: read-out: MIC
Text: as §1

Cryptococcus neoformans = test: Broth dilution MIC (CLSI); type: cell-based; settings: read-out: MIC
Text: as §1

[3] = test system: Staphylococcus aureus, MRSA; test: Broth dilution MIC (CLSI); type: cell-based; settings: read-out: MIC
Text: as §1

Microsporum canis = test: Broth dilution MIC (CLSI); type: cell-based; settings: read-out: MIC
Text: as §1

Acinetobacter baumannii = test: Broth dilution MIC (CLSI); type: cell-based; settings: read-out: MIC
Text: as §1

[4] = test system: Staphylococcus epidermidis; test: Broth dilution MIC (CLSI); type: cell-based; settings: read-out: MIC
Text: as §1

Pseudomonas aeruginosa = test: Broth dilution MIC (CLSI); type: cell-based; settings: read-out: MIC
Text: as §1

M. intracellulare = test: microbe, parasite or virus in culture; type: cell-based; settings: Mycobacterium intracellulare
M. colombiense = test: microbe, parasite or virus in culture; type: cell-based; settings: Mycobacterium colombiense
M. phlei = test: microbe, parasite or virus in culture; type: cell-based, Mycobacterium phlei; settings: Mycolicibacterium phlei
[5] = test system: clinically isolated MDR, XDR, and TDR M. tuberculosis strains; test: microbe, parasite or virus in culture; type: cell-based; settings: Mycobacterium tuberculosis
M. fortuitum = test: microbe, parasite or virus in culture; type: cell-based, Mycobacterium fortuitum; settings: Mycolicibacterium fortuitum
M. gilvum = test: microbe, parasite or virus in culture; type: cell-based, Mycobacterium gilvum; settings: Mycolicibacterium gilvum
M. goodie = test: microbe, parasite or virus in culture; type: cell-based; settings: Mycobacterium

Measured: MIC

NNC(=O)c1ccncc1 [INH, isoniazid, reference compound]
25 µg/mL: M. avium | M. conceptionense | M. intracellulare | M. fortuitum | M. goodie
6.3 µg/mL: [5]; TDR-2
12.5 µg/mL: M. massiliense | M. chitae | M. colombiense | [5]; TDR-1 | [5]; TDR-3 | M. gilvum
> 100 µg/mL: M. phocaicum | Klebsiella pneumoniae | Escherichia coli | Saccharomyces cerevisiae | Salmonella Typhimurium | Shigella dysenteriae | Salmonella Enteritidis | Proteus vulgaris | [1] | Enterobacter aerogenes | Salmonella Paratyphi A | Shigella boydii | Streptococcus pneumoniae | Shigella flexneri | Trichophyton rubrum | Rhizopus oryzae | Candida albicans | Serratia marcescens | Citrobacter freundii | Proteus mirabilis | Bacillus subtilis | Aspergillus fumigatus | [2] | Escherichia coli O157 | Shigella sonnei | Cryptococcus neoformans | [3] | Microsporum canis | Acinetobacter baumannii | [4] | Pseudomonas aeruginosa | M. phlei
3.1 µg/mL: M. neoaurum

COC(=O)[C@@H]1CCC(=O)N1Cc1cc2ccc(OC)cc2c2cc(OC)c(OC)cc12 [PP1S, (S)-N-[(2,3,6-Trimethoxy-10-phenanthryl)methyl]-pyroglutamic acid methyl ester]
> 100 µg/mL: M. avium | M. neoaurum | M. conceptionense | M. massiliense | M. chitae | M. phocaicum | Klebsiella pneumoniae | Escherichia coli | Saccharomyces cerevisiae | Salmonella Typhimurium | Shigella dysenteriae | Salmonella Enteritidis | Proteus vulgaris | [1] | Enterobacter aerogenes | Salmonella Paratyphi A | Shigella boydii | Streptococcus pneumoniae | Shigella flexneri | Trichophyton rubrum | Rhizopus oryzae | Candida albicans | Serratia marcescens | Citrobacter freundii | Proteus mirabilis | Bacillus subtilis | Aspergillus fumigatus | [2] | Escherichia coli O157 | Shigella sonnei | Cryptococcus neoformans | [3] | Microsporum canis | Acinetobacter baumannii | [4] | Pseudomonas aeruginosa | M. intracellulare | M. colombiense | M. phlei | M. fortuitum | M. gilvum | M. goodie
0.8 µg/mL: [5]; TDR-2
3.3 µg/mL: [5]; TDR-1
3.1 µg/mL: [5]; TDR-3

CCCCOc1ccc2cc(CN3C(=O)CC[C@H]3C(=O)OC)c3cc(OC)c(OC)cc3c2c1 [PP2S, Methyl (S)-1-((3-butoxy-6,7-dimethoxyphenanthren-9-yl)methyl)-5-oxopyrrolidine-2-carboxylate]
0.2 µg/mL: [5]; TDR-2
1.6 µg/mL: [5]; TDR-1 | [5]; TDR-3
> 100 µg/mL: M. avium | M. neoaurum | M. conceptionense | M. massiliense | M. chitae | M. phocaicum | Klebsiella pneumoniae | Escherichia coli | Saccharomyces cerevisiae | Salmonella Typhimurium | Shigella dysenteriae | Salmonella Enteritidis | Proteus vulgaris | [1] | Enterobacter aerogenes | Salmonella Paratyphi A | Shigella boydii | Streptococcus pneumoniae | Shigella flexneri | Trichophyton rubrum | Rhizopus oryzae | Candida albicans | Serratia marcescens | Citrobacter freundii | Proteus mirabilis | Bacillus subtilis | Aspergillus fumigatus | [2] | Escherichia coli O157 | Shigella sonnei | Cryptococcus neoformans | [3] | Microsporum canis | Acinetobacter baumannii | [4] | Pseudomonas aeruginosa | M. intracellulare | M. colombiense | M. phlei | M. fortuitum | M. gilvum | M. goodie

COC(=O)[C@@H]1CCC(=O)N1Cc1cc2ccc(OCc3ccccc3)cc2c2cc(OC)c(OC)cc12 [PP3S, Methyl (S)-1-{[3-(Benzyloxy)-6,7-dimethoxy-9-phenanthryl]methyl}-5-oxopyrrolidine-2-carboxylate]
0.8 µg/mL: [5]; TDR-1 | [5]; TDR-3
> 100 µg/mL: M. avium | M. neoaurum | M. conceptionense | M. massiliense | M. chitae | M. phocaicum | Klebsiella pneumoniae | Escherichia coli | Saccharomyces cerevisiae | Salmonella Typhimurium | Shigella dysenteriae | Salmonella Enteritidis | Proteus vulgaris | [1] | Enterobacter aerogenes | Salmonella Paratyphi A | Shigella boydii | Streptococcus pneumoniae | Shigella flexneri | Trichophyton rubrum | Rhizopus oryzae | Candida albicans | Serratia marcescens | Citrobacter freundii | Proteus mirabilis | Bacillus subtilis | Aspergillus fumigatus | [2] | Escherichia coli O157 | Shigella sonnei | Cryptococcus neoformans | [3] | Microsporum canis | Acinetobacter baumannii | [4] | Pseudomonas aeruginosa | M. intracellulare | M. colombiense | M. phlei | M. fortuitum | M. gilvum | M. goodie
1.6 µg/mL: [5]; TDR-2
